Laboratory results published in patent US7166597B2, “Fused pyrazole derivatives being protein kinase inhibitors” (Glaxo Group Limited, priority 2000, dated 2007).
Read-outs that look alike come from different tables or passages of the source.

Assays:
[1] = Cell Based Efficacy (MTT Assay), cytotoxicity toward HFF; details: human, HFF cells (human foreskin fibroblasts)
Method: Cell Based Efficacy (MTT Assay)
The potency of compounds of the invention are tested for their ability to inhibit cell proliferation and cell viability. The metabolic conversion of 3-(4,5-dimethylthiazol-2-yl)-2,5-diphenyltetrazolium bromide (MTT, Sigma #M2128) to a reduced form was a commonly used measure of cellular viability. Following was the procedure:
Cells are maintained in 75 cm^2 tissue culture flasks until ready for use. The cells are grown and plated for the assay in Dulbecco's modified Eagle's media containing 10% fetal bovine serum. For example, the following cell lines can be used: a) human foreskin fibroblasts (HFF), b) HT29 (human colon carcinoma cell line), c) MDA-MB468 (human breast carcinoma cell line), d) RKO (human colon adenocarcinoma cell line), e) SW620 (human colon carcinoma cell line), f) A549 (human lung carcinoma cell line), and g) MIA PACA (human pancreatic carcinoma cell line). Cells are maintained at 37° C. in 10% CO2, 90% humidified air. Cells are plated in 96-well tissue culture plates at the densities listed below (Table 6). 100 μL of cell suspension was added to each well of the 96-well plate except the top row of the plate which contains no cells and serves as a reference for the spectrophotometer.
Cells are incubated overnight in Dulbecco's modified Eagle's media containing 10% fetal bovine serum at 37° C. in 10% CO2, 90% humidified air prior to dosing. Cells are dosed in 10 sequential 3-fold dilutions starting at 30 μM depending upon the solubility of the compound. Compounds with solubilities of less than 30 μM are dosed at the highest soluble concentration. Stock solutions of compounds are made in 100% dimethyl sulfoxide (DMSO). Stock solutions are diluted in Dulbecco's modified Eagle's media containing 100 ug/mL gentamicin and 0.3 to 0.6% DMSO at the twice the highest concentration to be placed on the cells. If compounds have been dissolved in DMSO the final concentration of DMSO on the cells was kept below 0.3%. 3-fold serial dilutions are performed on each compound to prepare 10 concentrations of the compound for dosing. 100 μL of diluted compound was added to the 100 μL of media currently on the dish. For each concentration of compound, 2–4 replicate wells are prepared.
Cells are returned to incubator and allowed to proliferate in the presence of compound for 72 h before addition of MTT. MTT was prepared in phosphate buffered saline (Irvine Scientific #9240) at a concentration of 2 mg/mL. 50 μL per well of MTT solution was added to the 200 μL of media to yield a final concentration of 0.4 mg/mL and plates are returned to the incubator for 4 h. After 4 h incubation the media, compound and MTT mixture was aspirated from the plates and 100 μL of 100% DMSO was added to each well in addition to 25 uL of Sorenson's Buffer (0.1M glycine, 0.1M NaCl, pH 10.5). Quantitation of metabolic reduction of MTT in each plate was performed by reading optical density at 570 nm wavelength on a Molecular Devices UV max microplate reader. Growth inhibition curves and 50% inhibitory concentrations are determined using Microsoft Excel.

[2] = biological target: T1, p38 kinase (Homo sapiens, UniProt Q16539); experiment: p38 Kinase Assay; type: biochemical
T1 construct: GST (N); made in house; host or cells: E. coli
T1 sequence (Q16539 whole entry): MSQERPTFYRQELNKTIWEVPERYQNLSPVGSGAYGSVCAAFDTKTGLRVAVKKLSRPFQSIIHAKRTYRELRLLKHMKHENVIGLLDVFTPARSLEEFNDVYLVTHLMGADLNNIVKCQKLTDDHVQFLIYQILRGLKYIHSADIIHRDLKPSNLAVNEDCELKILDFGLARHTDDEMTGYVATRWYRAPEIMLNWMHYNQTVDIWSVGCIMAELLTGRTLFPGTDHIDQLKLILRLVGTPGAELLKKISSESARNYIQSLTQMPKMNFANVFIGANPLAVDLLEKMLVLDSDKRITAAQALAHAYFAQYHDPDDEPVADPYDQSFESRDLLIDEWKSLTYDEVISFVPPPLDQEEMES

[3] = test system: serum TNFα elevation in mice treated with lipopolysaccharide (LPS); experiment: Murine LPS-Stimulated Serum TNF Inhibition; type: in vivo; details: Mus musculus, 1.5 h, dose 30 mpk, read-out: % inh. (dose): % inhibition of murine TNF production in mice following an LPS challenge
Method: Murine LPS—Stimulated Serum TNF Inhibition Protocol
The potency of compounds of the invention as inhibitors of serum TNFα elevation in mice treated with lipopolysaccharide (LPS) was determined as follows; a) for subcutaneous (s.c.) administration, test compound was dissolved in DMSO and added to a mixture of 0.9% sodium chloride solution and 30% Trappsol HPB-20 (Cyclodextrin Technology Development Inc., Gainesville, Fla. USA) for a final DMSO concentration of 1%. The dosing solution was sonicated briefly and 0.2 mL was injected subcutaneously 10 min prior to LPS injection; b) for per oral (p.o.) administration, test compounds were formulated in 0.2 mL of PBS and 0.1% Tween 80 and given orally via gavage 10 min prior to LPS administration.
C3/hen female mice were injected intraperitoneally with 200 μg/kg LPS (Escherichia coil, Serotype 0111:B4, Sigma Chemical Co, St. Louis, Mo.) in PBS and sacrificed 90 min later by CO2 asphyxiation. Blood was immediately taken from the caudal vena cava and plasma prepared and frozen at −80° C. Plasma concentrations of TNF were measured by ELISA (Genzyme Co., Cambridge Mass.).

[4] = test system: TNF release from human peripheral blood mononuclear cells (PBMNC); experiment: Cell Based Assay for Cytokines Production in PBMNC (TNF release after LPS); details: PBMC, read-out: TNF/PBMNC (inhibition of TNF release from human PBMNC following stimulation with LPS, IC50)
Method: Cell Based Assay for Cytokines Production in PBMNC
Human peripheral blood mononuclear cells were isolated from heparinized blood by LSM (Organon Teknika) from volunteer donors. Purified human peripheral blood mononuclear cells were then suspended at a concentration of 2×10^6 cells/ml in RPMI 1640 medium supplemented with 10% heat-inactivated FBS and 1% antibiotics. Aliquots of 100 μl (2×10^5 cells) were added to 96-well microliter plates. Test compounds at […] dose ranges (final-DMSO concentration in culture medium was 0.1%) were then added to the cells for 10–15 minutes before the addition of lipopolysaccharide (1 ng/ml). After incubation at 37° C. in a 5% CO2 incubator for 18–20 h, cell free supernatants were collected by centrifugation at 800 g. The supernatant was then assayed for the amount of TNFα and IL-1β by using Quantikine immunoassay kits developed by R&D Systems (Minneapolis, Minn.).

| IC50 ([2]; Table 8, compounds wherein Z is N, read-out: p38 kinase (inhibition of p38 kinase, IC50)) [nM] | IC50 ([4]; Table 8, LPS stimulation) [nM] | IC50 ([2]; Table 7, compounds wherein Z is CH, read-out: P38 kinase (inhibition of p38 kinase, IC50)) [nM] | IC50 ([4]; Table 7, LPS stimulation) [nM] | SMILES | IC50 at 72 h ([1]; Table 8, HFF cell line) [nM] | inhibition in vivo at 30 mg/kg ([3]; Table 8, LPS challenge) [%] | IC50 at 72 h ([1]; Table 7, HFF cell line) [nM] | inhibition in vivo at 30 mg/kg ([3]; Table 7, LPS challenge) [%] |
| --- | --- | --- | --- | --- | --- | --- | --- | --- |
| 500 to 5000 | 500 to 5000 |  |  | Fc1ccc(-c2nn3ccccc3c2-c2ccncn2)cc1 [Example 56, 2-(4-Fluorophenyl)-3-(4-pyrimidinyl)-pyrazolo[1,5-a]pyridine] | > 50000 | 67 |  |  |
|  |  | < 500 | < 500 | OCCCNc1cc(-c2c(-c3ccc(F)cc3)nn3ccccc23)ccn1 [Example 30, 3-(4-[2-(4-Fluorophenyl)pyrazolo[1,5-a]pyridin-3-yl]-2-pyridinylamino)-1-propanol] |  |  | > 50000 | 45 |
